From patent publication US11331314B2, “Amine substituted triazole derivatives and uses thereof” (Bayer Pharma Aktiengesellschaft, priority 2017, dated 2022)
pIC50: −log10 of the molar value.

Key:
human V1a receptor = human V1a receptor (Homo sapiens, UniProt P37288); assay: Cellular in vitro assay for determining vasopressin receptor activity, V1a receptor cell line (photoprotein luminescence); type: cell-based; details: for pIC50: CHO cell line transfected with the human V1a receptor, agonist [Arg8]-vasopressin at EC50 concentration, read-out: IC50 hV1a; for ratio IC50 hV2/hV1a: selectivity ratio of the cellular IC50 values
In short: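 CHO K1 cells stably expressing human V1a receptor with aequorin photoprotein, loaded overnight with coelenterazine. Compounds preincubated 10 min at various concentrations, then challenged with [Arg^8]-vasopressin at EC50 concentration. Calcium-driven luminescence read immediately; IC50 values derived.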

human V2 receptor = molecular target: T1, human V2 receptor (Homo sapiens, UniProt P30518); assay: Cellular in vitro assay for determining vasopressin receptor activity, V2 receptor cell line (CRE-luciferase); type: cell-based; details: CHO cell line transfected with the human V2 receptor; agonist [Arg8]-vasopressin at EC50 concentration; read-out: IC50 hV2
T1 construct: expressed in transfected cells; host or cells: CHO K1 (ATCC) expressing firefly luciferase under a CRE-responsive promoter
T1 sequence (P30518 whole entry): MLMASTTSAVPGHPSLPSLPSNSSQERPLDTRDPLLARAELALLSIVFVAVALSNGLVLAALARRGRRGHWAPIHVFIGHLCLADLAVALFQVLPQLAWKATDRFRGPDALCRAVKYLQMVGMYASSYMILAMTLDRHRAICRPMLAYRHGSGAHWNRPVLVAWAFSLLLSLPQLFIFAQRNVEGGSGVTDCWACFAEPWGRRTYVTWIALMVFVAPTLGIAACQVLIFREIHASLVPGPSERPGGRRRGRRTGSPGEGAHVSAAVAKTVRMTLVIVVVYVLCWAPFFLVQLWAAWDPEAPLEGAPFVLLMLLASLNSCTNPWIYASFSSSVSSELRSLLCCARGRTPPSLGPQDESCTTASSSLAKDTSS

Chain of human V1a receptor (P37288 whole entry): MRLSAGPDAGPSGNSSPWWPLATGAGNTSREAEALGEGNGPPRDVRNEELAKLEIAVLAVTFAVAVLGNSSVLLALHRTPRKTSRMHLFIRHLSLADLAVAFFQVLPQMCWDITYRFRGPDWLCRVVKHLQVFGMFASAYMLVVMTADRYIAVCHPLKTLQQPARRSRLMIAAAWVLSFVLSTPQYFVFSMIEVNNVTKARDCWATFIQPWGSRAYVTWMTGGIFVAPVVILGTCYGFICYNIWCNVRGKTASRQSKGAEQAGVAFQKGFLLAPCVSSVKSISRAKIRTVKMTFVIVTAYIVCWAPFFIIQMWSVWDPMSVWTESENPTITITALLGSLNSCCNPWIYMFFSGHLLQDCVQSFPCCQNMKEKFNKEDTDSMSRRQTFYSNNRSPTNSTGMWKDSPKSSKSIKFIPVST

| SMILES | pIC50 (human V1a receptor) | ratio IC50 hV2/hV1a (human V1a receptor) | pIC50 (human V2 receptor) |
| --- | --- | --- | --- |
| CC(C)(CNc1nc(Cn2nc(-c3ccc(Cl)cc3)n(C[C@H](O)C(F)(F)F)c2=O)nn1-c1ccccc1Cl)NS(C)(=O)=O [Example 26] | 9.40 | 5.6 | 8.66 |
| O=C1CC(Nc2nc(Cn3nc(-c4ccc(Cl)cc4)n(C[C@H](O)C(F)(F)F)c3=O)nn2-c2ccccc2Cl)CN1 (mixture of isomers) [Example 69, 5-(4-Chlorophenyl)-2-{[1-(2-chlorophenyl)-5-{[5-oxopyrrolidin-3-yl]amino}-1H-1,2,4-triazol-3-yl]methyl}-4-[(2S)-3,3,3-trifluoro-2-hydroxypropyl]-2,4-dihydro-3H-1,2,4-triazol-3-one] | 8.98 | 4.2 | 8.36 |
| O=C1CCC(CNc2nc(Cn3nc(-c4ccc(Cl)cc4)n(C[C@H](O)C(F)(F)F)c3=O)nn2-c2ccccc2Cl)N1 (mixture of isomers) [Example 63, 5-(4-Chlorophenyl)-2-{[1-(2-chlorophenyl)-5-({[5-oxopyrrolidin-2-yl]methyl}amino)-1H-1,2,4-triazol-3-yl]methyl}-4-[(2S)-3,3,3-trifluoro-2-hydroxypropyl]-2,4-dihydro-3H-1,2,4-triazol-3-one] | 9.38 | 14.0 | 8.24 |
| O=C1NCCC1Nc1nc(Cn2nc(-c3ccc(Cl)cc3)n(C[C@H](O)C(F)(F)F)c2=O)nn1-c1ccccc1Cl (single isomer, unassigned) [Example 18] | 9.09 | 1.7 | 8.87 |
| CS(=O)(=O)CCNc1nc(Cn2nc(-c3ccc(Cl)cc3)n(C[C@H](O)C(F)(F)F)c2=O)nn1-c1ccccc1Cl [Example 51, 5-(4-Chlorophenyl)-2-{[1-(2-chlorophenyl)-5-{[2-(methylsulfonyl)ethyl]amino}-1H-1,2,4-triazol-3-yl]methyl}-4-[(2S)-3,3,3-trifluoro-2-hydroxypropyl]-2,4-dihydro-3H-1,2,4-triazol-3-one] | 9.15 | 2.5 | 8.76 |
| CNc1nc(Cn2nc(-c3ccc(Cl)cc3)n(C[C@H](O)C(F)(F)F)c2=O)nn1-c1cccc(Cl)c1 [Example 118, 5-(4-Chlorophenyl)-2-{[1-(3-chlorophenyl)-5-(methylamino)-1H-1,2,4-triazol-3-yl]methyl}-4-[(2S)-3,3,3-trifluoro-2-hydroxypropyl]-2,4-dihydro-3H-1,2,4-triazol-3-one] | 7.78 | 0.1 | 8.98 |

Continued, values first:

| pIC50 (human V1a receptor) | ratio IC50 hV2/hV1a (human V1a receptor) | pIC50 (human V2 receptor) | SMILES |
| --- | --- | --- | --- |
| 9.14 | 10.1 | 8.14 | O=C(CNc1nc(Cn2nc(-c3ccc(Cl)cc3)n(C[C@H](O)C(F)(F)F)c2=O)nn1-c1ccccc1Cl)NCC(F)(F)F [Example 40, N^2-[1-(2-Chlorophenyl)-3-({3-(4-chlorophenyl)-5-oxo-4-[(2S)-3,3,3-trifluoro-2-hydroxypropyl]-4,5-dihydro-1H-1,2,4-triazol-1-yl}methyl)-1H-1,2,4-triazol-5-yl]-N-(2,2,2-trifluoroethyl)glycinamide] |
| 7.38 | 73.5 | 5.52 | CC(C)(N)CNc1nc(Cn2nc(-c3ccc(Cl)cc3)n(C[C@H](O)C(F)(F)F)c2=O)nn1-c1ncccc1F [Example 92, 2-({5-[(2-Amino-2-methylpropyl)amino]-1-(3-fluoropyridin-2-yl)-1H-1,2,4-triazol-3-yl}methyl)-5-(4-chlorophenyl)-4-[(2S)-3,3,3-trifluoro-2-hydroxypropyl]-2,4-dihydro-3H-1,2,4-triazol-3-one] |
| 9.24 | 30.2 | 7.76 | O=c1n(Cc2nc(N3CCNCC3)n(-c3ccccc3Cl)n2)nc(-c2ccc(Cl)cc2)n1C[C@H](O)C(F)(F)F [Example 72, 5-(4-Chlorophenyl)-2-{[1-(2-chlorophenyl)-5-(piperazin-1-yl)-1H-1,2,4-triazol-3-yl]methyl}-4-[(2S)-3,3,3-trifluoro-2-hydroxypropyl]-2,4-dihydro-3H-1,2,4-triazol-3-one] |
| 9.32 | 12.6 | 8.22 | O=C1NCC2(CN(c3nc(Cn4nc(-c5ccc(Cl)cc5)n(C[C@H](O)C(F)(F)F)c4=O)nn3-c3ccccc3Cl)C2)N1 [Example 35, 2-[1-(2-Chlorophenyl)-3-({3-(4-chlorophenyl)-5-oxo-4-[(2S)-3,3,3-trifluoro-2-hydroxypropyl]-4,5-dihydro-1H-1,2,4-triazol-1-yl}methyl)-1H-1,2,4-triazol-5-yl]-2,5,7-triazaspiro[3.4]octan-6-one] |
| 7.52 | 8.2 | 6.61 | O=c1n(Cc2nc(N3CCOC(C(F)(F)F)C3)n(CCC(F)(F)F)n2)nc(-c2ccc(Cl)cc2)n1C[C@H](O)C(F)(F)F (mixture of isomers) [Example 103, 5-(4-Chlorophenyl)-4-[(2S)-3,3,3-trifluoro-2-hydroxypropyl]-2-({5-[2-(trifluoromethyl)morpholin-4-yl]-1-(3,3,3-trifluoropropyl)-1H-1,2,4-triazol-3-yl}methyl)-2,4-dihydro-3H-1,2,4-triazol-3-one] |
| 8.03 | 41.0 | 6.41 | O=C1CC[C@@H](CNc2nc(Cn3nc(-c4ccc(Cl)cc4)n(C[C@H](O)C(F)(F)F)c3=O)nn2CCC(F)(F)F)N1 [Example 109, 5-(4-Chlorophenyl)-2-{[5-({[(2S)-5-oxopyrrolidin-2-yl]methyl}amino)-1-(3,3,3-trifluoropropyl)-1H-1,2,4-triazol-3-yl]methyl}-4-[(2S)-3,3,3-trifluoro-2-hydroxypropyl]-2,4-dihydro-3H-1,2,4-triazol-3-one] |
